Measurements: PubChem BioAssay AID1645864 (Buhrlage Lab, Dana-Farber Cancer Institute and Novartis …, 2021)
pIC50: −log10 of the molar value. Active and inactive are the calls of the source.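 How the source made its calls: active means maximal inhibition of USP17 at or above 30% in the confirmation dose-response, a value not among the printed readouts; inactive means the rest.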

The molecules below were run against Ubiquitin carboxyl-terminal hydrolase 17-like protein 5 (Homo sapiens) (UniProt A8MUK1) (assay: ubiquitin-specific protease 17 inhibitors, concentration series, biochemical, verification of primary actives (AID 1645864)). Details: purified USP17, ubiquitin-rhodamine cleavage fluorescence, 3 h.
Ubiquitin carboxyl-terminal hydrolase 17-like protein 5 (Homo sapiens), sequence (A8MUK1 whole entry, looked up): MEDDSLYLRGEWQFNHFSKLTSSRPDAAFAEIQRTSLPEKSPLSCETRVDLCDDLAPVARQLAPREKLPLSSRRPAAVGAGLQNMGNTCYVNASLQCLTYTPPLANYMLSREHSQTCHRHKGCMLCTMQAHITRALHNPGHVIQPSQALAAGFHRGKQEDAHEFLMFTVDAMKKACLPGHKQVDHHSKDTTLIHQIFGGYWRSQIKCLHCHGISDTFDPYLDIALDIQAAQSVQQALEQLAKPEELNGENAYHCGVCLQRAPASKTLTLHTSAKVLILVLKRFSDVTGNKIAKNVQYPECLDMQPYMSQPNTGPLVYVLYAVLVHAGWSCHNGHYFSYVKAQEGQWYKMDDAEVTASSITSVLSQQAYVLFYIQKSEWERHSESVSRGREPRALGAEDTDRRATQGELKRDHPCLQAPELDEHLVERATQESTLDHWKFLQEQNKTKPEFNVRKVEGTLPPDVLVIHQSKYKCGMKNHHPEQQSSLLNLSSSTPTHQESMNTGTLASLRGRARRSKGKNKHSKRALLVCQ

SMILES | pIC50 | IC50
Cc1ccc(NCc2cc3c(C(C)(C)C)nn(-c4ccc(Cl)cc4)c3[nH]c2=O)cc1 | 4.80 | 
COc1cccc2c1NC(=O)C21CCN(C(=O)Nc2cccc3ccccc23)CC1 |  | > 50 µM (inactive)
Clc1cc2nc(N3CCN(c4ccccn4)CC3)c3nncn3c2cc1Cl | 5.66 | 
COc1ccc(CC(=O)Nc2ccc3nc(N4CCOCC4)cc(C)c3c2)cc1 | 4.62 | 
CC(C)c1ccc(NC(=O)COC(=O)c2ccc3[nH]c4c(c3c2)CCCC4)cc1 | 4.37 | 
Cc1nnc(Sc2cc(C(=O)NCCN3CCCC3)c3ccccc3n2)s1 | 4.52 | 
CCOc1ccc(NC(=O)CSc2nc3n[nH]c(C)c3c(=N)n2-c2ccc(OC)cc2)cc1 |  | > 50 µM (inactive)
CCCCNC(=O)c1cc2cccnc2n(Cc2ccccc2)c1=O |  | > 50 µM (inactive)
CCOc1ccccc1NC(=O)Cn1c(=O)n(CCCC(=O)NCc2ccc(C)cc2)c(=O)c2sccc21 | 5.57 | 
N#Cc1ccc(COC(=O)c2ccc3ccccc3n2)cc1 |  | > 50 µM (inactive)
N#Cc1cccnc1N1CCN(C(=O)Nc2cccc3ccccc23)CC1 | 4.53 | 
COc1cc2c(cc1OC)C(COc1ccccc1OC)N(C(=O)c1ccc3ccccc3c1)CC2 (configuration not stated) |  | > 5 µM (inactive)
COc1cc(O)c2c(=O)c(-c3ccc(O)cc3)coc2c1 | 4.81 | 
O=C(c1cscn1)N1CCC2(CC1)CC1(CO2)Nc2ccccc2-n2cccc21 (configuration not stated) |  | > 50 µM (inactive)
COc1ccc(OCCn2c(C3CC(=O)N(c4cccc(C)c4)C3)nc3ccccc32)cc1 (configuration not stated) | 6.41 | 
CN1CCN(C(=O)c2cc(-c3ccn(CC4CC4)n3)n3ccccc23)CC1 |  | > 50 µM (inactive)
COc1ccc(NC(=O)c2ccccc2OCC(=O)Nc2ccccc2C(F)(F)F)c(C)c1 | 4.57 | 
COc1ccc(Cl)cc1NC(=O)Cn1c(=O)cc(C)c2c(C)nn(-c3ccccc3)c21 | 5.24 | 
CCOC(=O)CSc1nnc(-c2cnn(-c3ccccc3)c2N)o1 | 4.69 | 
O=C(O)c1ccccc1C(=O)Nc1ccc(SC(C(=O)Nc2cccc(Cl)c2)c2ccccc2)cc1 (configuration not stated) | 4.63 | 
Cc1cc(C(=O)N2CCOCC2)c(C)n1-c1ccc(O)cc1 | 4.62 | 
c1ccc(CCN2CCc3nc4cccnc4cc3C2)nc1 |  | > 50 µM (inactive)
Cc1nn(Cc2ccccc2)c(C)c1C(=O)NC1CCCc2ccccc21 (configuration not stated) |  | > 50 µM (inactive)
Cc1cc(C)c2cc3c(nc2c1)OC(=O)N(Cc1ccco1)C3 | 4.51 | 
CCCCC/C=C/C=C/C(=O)OC1C(O)CC(c2ccc3c(c2O)C(=O)c2c(O)cc4cc(C)cc(O)c4c2C3=O)OC1C (configuration not stated) | 6.40 | 
COc1cc(NC(=O)c2ccc3c(c2)OCO3)ccc1-c1cc2ccccc2oc1=O | 6.17 | 

SMILES | pIC50 | IC50
CCOc1ccc(N2C(=O)c3ccccc3C2C(=O)NCc2ccccc2OC)cc1 (configuration not stated) | 4.34 | 
Clc1cncc(Oc2nc(-c3cccnc3)nc3ccccc23)c1 | 5.48 | 
O=[N+]([O-])c1ccc(NCC2COc3ccccc3O2)c(Cl)c1 (configuration not stated) |  | > 50 µM (inactive)
CCC(=O)OCc1cnc(C)c2oc(=O)c(-c3nc(-c4ccccc4)no3)cc12 |  | > 50 µM (inactive)
O=C(NC1(O)C(=O)c2ccccc2C1=O)c1ccc(-c2csnn2)cc1 | 4.71 | 
COc1ccc(-c2cc(N3CCC(NC(=O)c4ccccc4)C3)n[nH]2)cc1 (configuration not stated) | 4.68 | 
O=C(CNS(=O)(=O)c1ccc(F)cc1)N1CCCC(c2nnc3ccccn23)C1 (configuration not stated) |  | > 50 µM (inactive)
CC1=C(c2ccc(C)c(C)c2)S(=O)(=O)NC1=NCC(=O)NCCc1ccc(C)cc1 | 4.34 | 
COc1ccc(NC(=O)C2CCN(c3cncnc3N(C)C)CC2)cc1OC |  | > 50 µM (inactive)
CCn1cc(NC(=O)CN2CCC3(CC=CCOC3)CC2)c(C)n1 |  | > 50 µM (inactive)
Cc1nc(-c2ccccc2F)sc1C(=O)Nc1cccnc1 | 4.45 | 
Cc1nn(-c2ccc(Cl)cc2)c2[nH]c(=O)c(CNCC3CCCO3)cc12 (configuration not stated) |  | > 50 µM (inactive)
O=C(Nc1ccc2c(c1)OCCO2)C1CCC(Cn2cnc3ccccc3c2=O)CC1 (configuration not stated) |  | > 50 µM (inactive)
Cc1nnc(NC(=O)C2CCN(c3ccc(S(N)(=O)=O)cc3[N+](=O)[O-])CC2)o1 | 4.53 | 
O=C(c1cc(-c2ccc(Cl)cc2)n[nH]1)N1CCN(C(=O)c2ccco2)CC1 | 4.49 | 
O=C(c1nnn(Cc2ccc(Cl)cc2)c1-n1cccc1)N1CCCC1 |  | > 50 µM (inactive)
COc1ccc(NC(=O)C2C3C=CC4(O3)C2C(=O)N(CCc2ccccc2)C4C(=O)NC2CCCCC2)cc1 (configuration not stated) | 4.58 | 
Cc1nnc(-c2nnc(NCc3ccc(Cl)cc3)c3ccccc23)o1 |  | > 50 µM (inactive)
CCn1c(=O)c(=O)[nH]c2cc(C(=O)Nc3cccc(-c4csc(C)n4)c3)ccc21 | 4.57 | 
N#Cc1ccc(NC(=O)Nc2cccn(Cc3ccccc3F)c2=O)cc1 | 5.20 | 
O=C(/C=C/c1ccco1)c1cccc([N+](=O)[O-])c1 | 4.65 | 
O=C1c2ccccc2-n2c1nc1ccccc1c2=O | 5.31 | 
Cc1nc(-c2noc(-c3ccncc3)n2)cn1CC(=O)N1CCN(c2ccc(F)cc2)CC1 |  | > 50 µM (inactive)
COc1ccc(NC(=O)CSc2nc(N)c3c4c(sc3n2)COC(C)(C)C4)cc1 | 4.37 | 
CC(C)c1cc2c(c(O)c1O)[C@@]13CCCC(C)(C)[C@@H]1C[C@@H]2OC3=O | 4.71 | 
Cc1ccc(C(=O)NCc2ccc(C(=O)Nc3cccc(C)c3)o2)cc1 | 4.49 | 

SMILES | pIC50 | IC50
COc1ccc(CCNC(=O)c2cn(-c3ccc(F)cc3)nn2)cc1OC | 4.73 | 
CCn1c(SCC(=O)c2c(N)n(CC(C)C)c(=O)n(C)c2=O)nnc1-c1ccccc1 | 4.80 | 
O=C(NCc1ccc2c(c1)OCO2)c1cc(-c2cc(Cl)ccc2O)n[nH]1 | 5.50 | 
COc1cccc(/C=C/C(=O)Nc2ccc(N3CCOCC3)cc2)c1OC |  | > 50 µM (inactive)
Cc1nnc(NCc2cccnc2)c2c1nnn2Cc1ccccc1Cl | 4.47 | 
Cn1c2ccccc2c2ncn(Cc3ccc(F)cc3)c(=O)c21 | 4.36 | 
CSc1ncccc1C(=O)NC1(O)C(=O)c2ccccc2C1=O | 5.34 | 
COc1cc2c(oc(=O)c3cc(C)cc(OC)c32)c2c([C@@H]3OC(C)[C@@H](O)[C@@](C)(O)C3O)ccc(O)c12 (some centres not stated) | 4.61 | 
Cc1ccc(NC(=O)CSc2nc3c(cc2C#N)C(=O)CCC3)cc1 | 4.53 | 
COc1cccc(Cn2nc3n(CC(C)C)c(=O)c4ccc(C(=O)NCC(C)C)cc4n3c2=O)c1 | 5.16 | 
COc1ccc(-c2cc(-c3ccc(F)cc3)[nH]c(=O)c2C#N)cc1 | 4.52 | 
CC(C)Cc1nc2oc3c(N(C)CCO)ncnc3c2c2c1CCC2 |  | > 50 µM (inactive)
Cc1ccc(NC(=O)c2cc(=O)n(C)c3c2c(=O)n(C)c(=O)n3C)c(C)c1 |  | > 50 µM (inactive)
O=C(c1cnccn1)N1CCc2[nH]c3ccc(F)cc3c2C1 |  | > 50 µM (inactive)
Cc1cc(C)nc(-n2nc(C)c3c2NC(=O)CSC3c2ccccc2F)n1 (configuration not stated) | 4.37 | 
COc1ccc(S(=O)(=O)N(C)Cc2cccs2)cc1OC |  | > 50 µM (inactive)
Cn1c(CCNC(=O)c2[nH]nc3c2CCc2ccccc2-3)nc2ccccc21 | 4.48 | 
O=C(OCc1ccc(Br)cc1)c1ccc2ccccc2n1 |  | > 50 µM (inactive)
Cc1ccc(NC(=O)c2sc3ncn(CC(=O)N4CCN(c5ccccn5)CC4)c(=O)c3c2C)c(Br)c1 | 4.45 | 
O=C(NC1CCCC1)c1cccc(-c2ccc(N3CCCC3)nc2)c1 | 5.34 | 
Cc1ccc(C(=O)Nc2ccc3nccnc3c2)cc1 |  | > 50 µM (inactive)
COc1ccccc1-c1nc(-c2nnn(Cc3ccc(C)cc3)c2C)no1 |  | > 50 µM (inactive)
COc1cccc(C(=O)Nc2ccc(-n3cnnn3)cc2)c1 |  | > 50 µM (inactive)
Cc1nn(C)c2c1[C@@H](c1ccc(F)cc1)[C@H](NC(=O)c1ccccc1)C(=O)N2 |  | > 50 µM (inactive)
CCCc1cc(=O)oc2cc(OCC(=O)NCc3ccc(OC)cc3)ccc12 | 5.03 | 
N#Cc1ccccc1OCc1csc(-c2ccccc2)n1 |  | > 50 µM (inactive)

SMILES | pIC50 | IC50
Cc1nn(-c2ccc(F)cc2)cc1-c1noc(C(=O)NCc2ccccn2)n1 | 4.63 | 
COc1ccc(CNC(=O)c2[nH]nc3c2CCc2ccccc2-3)cc1 | 4.45 | 
CC(C)N1C[C@@H]2C[C@H](NS(=O)(=O)c3cccc(C#N)c3)CN2Cc2ccccc21 |  | > 50 µM (inactive)
COc1ccc(CCNC(=O)c2cc3ccccc3s2)cc1OC |  | > 50 µM (inactive)
O=C(CCc1c[nH]c2ccccc12)Nc1ccc(N2CCOCC2)cc1 | 4.52 | 
Cc1ccccc1-c1noc(-c2ccccc2OCC(=O)NC(C)C)n1 |  | > 50 µM (inactive)
Cc1ccc(NC(=O)c2cnc(N3CCOCC3)nc2)cc1F | 4.54 | 
COc1ccc2ncc3c(-c4ccc(C)cc4)nn(-c4ccc(F)cc4)c3c2c1 | 5.45 | 
O=C(NCc1ccc(F)cc1)c1cc(-n2cnnn2)ccc1Cl | 4.60 | 
Oc1ccc(-c2nc3cnccn3c2NCCc2ccccc2)c(O)c1 |  | > 50 µM (inactive)
O=C(COc1ncnc2ccccc12)Nc1ccc2c(c1)OC1(CCCC1)O2 | 4.45 | 
CCn1c(SCC(=O)N2c3ccccc3CC2C)nnc1-c1ccc2c(c1)OCCO2 (configuration not stated) | 4.46 | 
O=C(COc1nsnc1N1CCOCC1)Nc1ccccc1F |  | > 50 µM (inactive)
O=C(c1ccnn1-c1ccc2ccc(-c3ccncc3)cn12)N1CCCC1 |  | > 50 µM (inactive)
COCCn1ccc2nc(C)c(C(=O)Nc3ccc4c(c3)OCCO4)cc2c1=O | 4.43 | 
CN[C@H]1CC2(CCN(C(=O)CCCn3cccn3)CC2)OC[C@]1(C)O |  | > 50 µM (inactive)
O=C(O)Cc1ccc(Nc2nc3ccccc3n3nnnc23)cc1 |  | > 50 µM (inactive)
Cc1ccccc1NC(=O)Cn1cc(-c2nc(C3CC3)no2)ccc1=O |  | > 50 µM (inactive)
COc1ccc(C2CC(=O)Nc3ccc4ccccc4c32)c(OC)c1OC (configuration not stated) | 4.39 | 
Cc1ccc(S(=O)(=O)N(C)C)cc1NC(=O)Cc1ccc(Cl)c(Cl)c1 |  | > 50 µM (inactive)
CC(C)Cn1cc(OC(=O)c2ccc(F)cc2)c2c1nc(-c1ccc(F)cc1)n1c3ccccc3nc21 |  | > 50 µM (inactive)
O=C(NC1(O)C(=O)c2ccccc2C1=O)c1cccc2c1-c1ccccc1C2=O | 4.95 | 
CCN(CC)C(=O)CN1CCCC(c2ncncc2-c2cc(C)no2)C1 (configuration not stated) |  | > 50 µM (inactive)
O=c1[nH]c(C2CCN(S(=O)(=O)c3ccc(S(=O)(=O)NC4CCCCC4)cc3)CC2)nc2c1nnn2Cc1c(Cl)cccc1Cl | 5.04 | 
